Each block holds one molecule with its values, some of them ahead of it.
Tests used:
Type in all cases: cell-based
mouse β-cells [1] = experiment: Capacitance measurement of exocytosis, standard whole-cell patch, inositol phosphate in the pipette-filling solution
Description: Cells expressing EGFP were selected for capacitance measurements. Exocytosis was monitored as changes in cell capacitance using either the perforated patch or standard whole-cell configuration of the patch-clamp technique and an EPC9 patch-clamp amplifier (Heka Elektronik, Lambrecht/Pfalz, Germany). The pipette solution for the perforated patch configuration consisted of (in mM) 76 Cs2SO4, 10 NaCl, 10 KCl, 1 MgCl2, 5 HEPES (pH 7.35 with CsOH) and 0.24 mg/ml amphotericin B. Perforation required a few minutes, and the voltage clamp was considered satisfactory when the Gseries (series conductance) was stable and >35 nS. The pipette solution used for standard whole-cell recordings contained (in mM) 125 Cs-glutamate, 10 CsCl, 10 NaCl, 1 MgCl2, 5 HEPES, 0.05 EGTA, 0.01 GTP and 3 MgATP (pH 7.15 using CsOH). InsP7 isomers were dissolved in the pipette-filling solution to the final concentrations indicated in the text and kept on ice until use. The extracellular medium was composed of (in mM) 118 NaCl, 20 tetraethylammonium-Cl, 5.6 KCl, 1.2 MgCl2, 2.6 CaCl2, 5 HEPES (pH 7.40 using NaOH) and 3 glucose. The stimulation protocol consisted of trains of four 500-ms depolarizations applied at 1 Hz and went from −70 mV to zero mV. The capacitance measurements were performed at 33° C. and the recording chamber was perfused at a rate of 1.5 ml/min.
An important concern is that IP6K's can also use InsP5 as a substrate, generating a different subset of inositol pyrophosphates (4). Therefore, it was necessary to verify that InsP7 is able to directly promote exocytosis. The mammalian InsP7 is the 5-isomer and this was used in detailed experiments (FIG. 3A-D). We also assessed other theoretical isomers of InsP7 (FIG. 3E). To measure the effects of 5-InsP7 on exocytosis, we applied trains of depolarizations in standard whole-cell experiments where the β-cell was dialyzed with a solution containing 3 μM InsP7. Following establishment of the whole-cell configuration, the cell was allowed two minutes equilibration period. A train consisting of four 500 ms depolarizations from −70 mV to 0 mV was then applied to evoke exocytosis. In a series of six experiments, the total increase in cell capacitance amounted to 231+/−12 fF (P<0.01) in the presence of 3 μM InsP7 in the pipette-filling solution and 77+/−11 fF under control conditions, respectively (FIG. 3A). […] The stimulatory action of 5-InsP7 on exocytosis was concentration dependent (FIG. 3D). […] At higher concentrations, 5-InsP7 stimulated exocytosis by 90-410%. Approximating the average data points to the Hill equation yielded a half-maximal stimulatory effect of 1.02 μM and a co-operativity factor of 1.5. […] Thus, 5-InsP7 dose-dependently enhances exocytosis within the physiological range of InsP7 concentrations (1-10 μM). […] This is because the effect of InsP6 on exocytosis can only be discerned under conditions in which endocytosis is inhibited (15). This is not the case for InsP7. […] Our data illustrate that InsP7 and InsP6 have distinct effects on exocytosis.

[2] = tested on: whole-cell Ca2+ current in mouse β-cells; experiment: Whole-cell Ca2+ current (integrated Ca2+ current) during depolarization train; settings: 3 μM in the pipette-filling solution
Description: FIG. 3. InsP7 dose-dependently promotes Ca2+-dependent exocytosis. Individual mouse β-cells were subjected to a train of four 500-ms depolarizations using the standard whole-cell patch configuration. (A) Exocytosis was observed under control conditions and in the presence of 3 μM 5-InsP7 in the pipette-filling solution. 5-InsP7 was allowed to diffuse into the cell for 2 min before initiation of the experiment. (B) Histogram summarizing the average increases in cell capacitance plotted against the individual depolarizations as well as the total increases in cell capacitance at the end of the train in the absence or presence of 3 μM 5-InsP7 in the pipette-filling solution. (C) Histogram showing integrated Ca2+ current (QCa) plotted against the individual depolarizations in the absence or presence of 3 μM InsP7 in the pipette-filling solution. (D) Concentration dependence of stimulatory action of 5-InsP7 on exocytosis evoked by a single membrane depolarization from −70 mV to zero. The curve represents a least-squares fit of the mean data points to the Hill equation. […]
Cells expressing EGFP were selected for capacitance measurements. Exocytosis was monitored as changes in cell capacitance using either the perforated patch or standard whole-cell configuration of the patch-clamp technique and an EPC9 patch-clamp amplifier (Heka Elektronik, Lambrecht/Pfalz, Germany). […]

mouse β-cells [3] = experiment: Capacitance measurement of exocytosis, standard whole-cell patch, inositol phosphate in the pipette-filling solution; parameters: dose or concentration left out as unconfirmed; settings: at InsP7; single depolarization from −70 mV to zero
[4] = in the presence of 5-InsP7 (3 μM)

- EC50 (mouse β-cells [1]; Hill equation fit of average data points, read-out: half-maximal stimulatory effect on exocytosis): 1020 nM
Compound: O=P(O)(O)OC1[C@@H](OP(=O)(O)O)[C@H](OP(=O)(O)O)C(OP(=O)(O)OP(=O)(O)O)[C@H](OP(=O)(O)O)[C@H]1OP(=O)(O)O (stereo partly drawn) [5-InsP7, 5-Diphosphoinositol pentakisphosphate]
- concentration giving maximal stimulation of exocytosis (mouse β-cells [1]): ≥ 10 µM
- total increase in cell capacitance (mouse β-cells [1]; 3 μM InsP7 in the pipette-filling solution, train of four 500 ms depolarizations, six experiments): 231+/−12 fF
- maximal stimulation of exocytosis (mouse β-cells [1]; at InsP7 ≧10 μM): > 380%
- stimulation of exocytosis (mouse β-cells [1]; at higher concentrations (above 0.1), single depolarization): 90-410%
- capacitance increase evoked by the first depolarization (mouse β-cells [1]; [4]): strongly stimulated
- exocytosis in response to the subsequent 3 depolarizations (mouse β-cells [1]; [4]): only little effect
- exocytotic response in cells with IP6K1 silenced (mouse β-cells [1]; whole cell mode, IP6K1 siRNA-treated primary β-cells): restore normal exocytotic response
- change in the whole-cell Ca2+ current [2]: not associated with a change
- stimulation of exocytosis at low concentration (mouse β-cells [3]): No stimulation

Compound: O=P(O)(O)O[C@H]1[C@H](OP(=O)(O)O)[C@@H](OP(=O)(O)O)[C@H](OP(=O)(O)O)[C@@H](OP(=O)(O)O)[C@H]1OP(=O)(O)O [InsP6]
- net effect on exocytosis/endocytosis (mouse β-cells [1]; same conditions as for InsP7, 10 μM InsP6 in the pipette-filling solution): promote endocytosis not exocytosis
- selective promotion of secretion from the RRP (mouse β-cells [1]; when endocytosis is inhibited (data not shown)): does not selectively promote secretion from the RRP
